Source: BindingDB's records for doi:10.3109/14756366.2011.643304 (Umeå University, 2013)

Target: T1, Fatty-acid amide hydrolase 1 [30-579] (Rattus norvegicus, UniProt P97612)
T1 construct: 30-579
T1 sequence (P97612 whole entry): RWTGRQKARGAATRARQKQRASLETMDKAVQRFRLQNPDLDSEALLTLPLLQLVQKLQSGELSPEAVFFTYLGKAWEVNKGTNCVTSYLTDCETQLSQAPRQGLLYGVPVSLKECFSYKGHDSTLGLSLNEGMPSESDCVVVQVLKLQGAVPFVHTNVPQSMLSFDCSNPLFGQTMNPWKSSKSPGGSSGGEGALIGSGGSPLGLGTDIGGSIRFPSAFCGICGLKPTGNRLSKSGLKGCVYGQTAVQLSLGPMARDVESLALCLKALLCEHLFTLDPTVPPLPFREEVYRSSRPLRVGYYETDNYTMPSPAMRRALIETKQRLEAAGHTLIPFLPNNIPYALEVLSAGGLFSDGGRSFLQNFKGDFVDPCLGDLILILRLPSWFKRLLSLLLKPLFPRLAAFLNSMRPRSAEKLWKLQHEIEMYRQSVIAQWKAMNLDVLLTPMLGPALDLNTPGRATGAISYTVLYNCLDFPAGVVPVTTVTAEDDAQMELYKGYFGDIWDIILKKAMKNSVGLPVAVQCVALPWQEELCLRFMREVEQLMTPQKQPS
Experiment: FAAH Assay
Settings: pH 7; 4 °C

IC50 [µM] | Structure (SMILES)
90 | CC(C)Cc1ccc(C(C)C(=O)NCC(=O)NCc2ccccn2)cc1 (configuration not stated) [2-(4-Isobutylphenyl)-N-(2-oxo-2-(pyridin-2-ylmethylamino)ethyl)propanamide (12)]
1.5 | CC(=O)Nc1ccc(OC(=O)CNC(=O)C(C)c2ccc(CC(C)C)cc2)cc1 (configuration not stated) [4-Acetamidophenyl 2-(2-(4-isobutylphenyl)propanamido)acetate (8)]
9.3 | Cc1cccnc1NC(=O)CCNC(=O)C(C)c1ccc(CC(C)C)cc1 (configuration not stated) [2-(4-Isobutylphenyl)-N-(3-(3-methylpyridin-2-ylamino)-3-oxopropyl)propanamide (11)]
0.65 | Cc1cccnc1NC(=O)C(C)c1ccc(CC(C)C)cc1 (configuration not stated) [2-(4-isobutylphenyl)-N-(3-methylpyridin-2-yl)propanamide]
37 | CC(C)Cc1ccc(C(C)C(=O)NCC(=O)NCc2cccnc2)cc1 (configuration not stated) [2-(4-Isobutylphenyl)-N-(2-oxo-2-(pyridin-3-ylmethylamino)ethyl)propanamide (13)]
115 | Cc1cccnc1OC(=O)C(C)c1ccc(CC(C)C)cc1 (configuration not stated) [3-Methylpyridin-2-yl 2-(4-isobutylphenyl)propanoate (3)]
150 | Cc1cccc(NC(=O)CNC(=O)C(C)c2ccc(CC(C)C)cc2)n1 (configuration not stated) [2-(4-Isobutylphenyl)-N-(2-(6-methylpyridin-2-ylamino)-2-oxoethyl)propanamide (10)]
